Two molecules from article PMC10788912 (Journal of Medicinal Chemistry, 2023) can be followed below.

Read-outs that look alike come from different tables or passages of the source.

The test system of one assay is caspase-3 in HeLa cells. The assay is described as follows: Caspase-3/7 activity assay. The assay is classed as cell-based, human. As to conditions: equitoxic concentrations, 1 h dark, 1 h irradiation 420 nm, 2 h recovery. On the procedure:
Figure 7 and Figure S59 show the morphological alteration observed 2 h after the HeLa cells were treated with Ir complexes 1–4 at their equitoxic concentrations (IC50,72h) and irradiated. […] The whole cells were swollen and rounded (Figure 7B–E). A significant cytoplasm blebbing was evident in the early stages of the process (Figure 7F). The bubbles around the cells were completely clean inside (Figure 7F), distinguishing them from the budding process typical of apoptosis.
The activation of caspase-3 was detected using CellEvent Caspase-3/7 Green - Active Caspase-3/7 Assay Kit (Thermo Fisher Scientific). Briefly, HeLa cells were seeded at a 6-well plate at 3 × 10^5 cells/well density and treated and irradiated as described above (1 h preincubation in the dark, 1 h irradiation at 420 nm). After 2 h of recovery in compound-free media, cells were stained with the CellEventCaspase 3/7 Green Detection Reagent according to the manufacturer’s protocol, and the fluorescence signal was analyzed by flow cytometry.

Assay [1] has as its system human cervix adenocarcinoma (HeLa) cells. The assay can be described thus: Phototoxicity testing, MTT assay, HeLa. Format: cell-based. How it is done:
(§1) The cells were treated with tested compounds diluted in Earle’s balanced salt solution (EBSS) for 1 h in the dark to allow the complexes to penetrate the cells. Afterward, the cells were irradiated for 1 h with blue light (LZC-4 photoreactor equipped with 16 lamps LZC-420, λmax = 420 nm) or sham irradiated. EBSS containing an Ir complex was then removed, and cells were incubated in the complete, drug-free Dulbecco’s modified Eagle’s medium (DMEM).
(§2) The metabolic activity of the cells (proportional to number of viable cells) was determined 72 h after irradiation using the standard 3-[4,5-dimethylthiazol-2-yl]-2,5 diphenyl tetrazolium bromide (MTT) assay. […] For comparative purposes (and at the reviewer’s request), the clinically used metallodrug cisplatin was included in the experiment.
Therefore, the photoactivation of Ir2 was tested also using a green (λmax = 545 nm) or red (λmax = 613 nm) light irradiation. For this experiment, samples were irradiated with a visible cool white lamp (LZC-Vis, Luzchem), and the appropriate green or red filter was applied; spectral characteristics can be seen in Figure S58.
The phototoxic potency of Ir complexes 1–4 was determined against human cancer Hela, A375, and HCT116 cell lines. […] The number of cells was determined using a standard MTT or SRB assay. […] The phototoxic index (PI) was calculated as a ratio of IC50 (dark)/IC50 (irradiated).
In general terms: Tetrazolium assays rely on reduction of a dye to a coloured formazan, in cell work by metabolically active cells.

Assay [2] relates to human colon adenocarcinoma HCT116 cells. The assay is described as follows: Phototoxicity testing, MTT assay, HCT116. Format: cell-based. The conditions noted are these: MTT 72 h. How it is done: as §1, §2
(§3) The phototoxic potency of Ir complexes 1–4 was determined against human cancer Hela, A375, and HCT116 cell lines. Cells were seeded on 96-well tissue culture plates at a density of 5 × 10^3 cells/well in 100 μL of complete DMEM medium and cultured overnight in a humidified incubator. […] The number of cells was determined using a standard MTT or SRB assay. […] The phototoxic index (PI) was calculated as a ratio of IC50 (dark)/IC50 (irradiated).

Assay [3] deals with human skin melanoma cells A375. The assay is described as follows: Phototoxicity testing, MTT assay, A375. Format: cell-based. The conditions noted are these: MTT 72 h. How it is done:
as §1, §2, §3

Assay [4] deals with human lung fibroblast MRC5 cells. The assay is described as follows: Long-term dark effect on noncancerous cells, MTT, MRC5. As to conditions: continuous exposure 48 h. The assay is classed as cell-based. How it is done: The low toxicity of nonirradiated Ir complexes toward human noncancerous cells was confirmed by the fact that their effect was very low or even undetectable during long-term exposure when the human primary prostate epithelial hTERT EP156T and human lung fibroblast MRC5 cells were exposed to the complexes continuously for 48 h (Table 2).
After the period of incubation, an MTT assay was performed and evaluated.

For `CN[C@@H]1C[C@H]2O[C@@](C)([C@@H]1OC)n1c3ccccc3c3c4c(c5c6ccccc6n2c5c31)C(=O)NC4` [staurosporine], the caspase-3 activity result in the assay with caspase-3 in HeLa cells is given as “significantly increased signal”.
As a reminder, the IC50 is the concentration at which inhibition is half-maximal. For `N.N.[Cl][Pt][Cl]` [cisPt, cisplatin], the IC50 is 27 ± 3 µM in assay [1] (1 h dark, then blue light 1 h, λmax = 420 nm, 58 ± 2 W m–2, MTT 72 h after irradiation, read-out: IC50 HeLa irrad); 23 ± 4 µM in assay [1] (sham irradiated, MTT 72 h, read-out: IC50 HeLa sham irrad); 27 ± 7 µM in assay [2] (blue light 1 h, λmax = 420 nm, 58 ± 2 W m–2, read-out: IC50 HCT116 irrad); 19 ± 4 µM in assay [2] (sham irradiated, read-out: IC50 HCT116 sham irrad); 15 ± 2 µM in assay [3] (blue light 1 h, λmax = 420 nm, 58 ± 2 W m–2, read-out: IC50 A375 irrad); 14 ± 1 µM in assay [3] (sham irradiated, read-out: IC50 A375 sham irrad). Moreover, in assay [4], inhibition was half-maximal at 6 ± 0.7 µM (IC50).
